Entries after “also recorded” stand apart in the source; their conditions may differ.
What was measured:
[1] = test system: hippocampal slices from WT mice; test: Long-term potentiation (LTP) in hippocampal slices perfused with oTau or oAβ; format: cell-based
Excerpt: Synaptic dysfunction is a major hallmark of AD (Histol Histopathol, 1995. 10(2): p. 509-19; herein incorporated by reference in its entirety). An aspect of the drug screening protocol can include a measurement of the effect of compounds onto synaptic function. Amyloid-beta (Aβ) is a toxic peptide that is thought to underlie subtle amnesic changes occurring at early stages of Alzheimer's disease. It impairs both memory and its electrophysiological surrogate, long-term potentiation (LTP). LTP can be examined because it is a type of synaptic plasticity thought to underlie learning and memory. RA010115 can rescue the Aβ-induced reduction of LTP, and other compounds can also be screened to identify those that can re-establish normal LTP. The compounds can be applied for 20 min. Controls can be performed on slices in the absence of Aβ, and mice treated with compound. Tau is another peptide that is involved in cell to cell communication, and impairs both memory and LTP in animal models of AD and other tauopathies. FIG. 26 is a graph showing that RA010115 rescues oligomeric Tau (oTau)- and oligomeric Aβ (o Aβ)-induced LTP deficits. LTP was impaired in hippocampal slices from WT mice perfused with oTau (50 nM) and oAβ (200 nM), whereas there was no impairment in slices treated with RA10115 or vehicle. LTP was restored in slices perfused with RA010115 and either oTau or oAβ. The horizontal solid bar represents oAβ and oTau perfusion while the horizontal dashed bar represents RA010115. The three arrows correspond to the theta-burst stimulation. […]

mice = test: Contextual fear memory; format: in vivo
Method: FIG. 28 is a graph showing that RA010115 rescues oTau- and oAβ-induced defects in contextual fear memory. There is statistical significance when comparing all groups during testing for contextual fear memory at 24 hrs after the electric shock (ANOVA among all groups: F(5, 57)=5.558 p=0.0003). […] The performance was not impaired when mice were treated with only RA010115 or vehicle.

p300 = p300 (Homo sapiens, UniProt Q09472); test: Histone Acetyltransferase (HAT) in vitro acetylation assay, western blot of H3K27ac / H3K18ac; format: biochemical; settings: compound in DMSO
Chain of p300 (Q09472 whole entry, species assumed): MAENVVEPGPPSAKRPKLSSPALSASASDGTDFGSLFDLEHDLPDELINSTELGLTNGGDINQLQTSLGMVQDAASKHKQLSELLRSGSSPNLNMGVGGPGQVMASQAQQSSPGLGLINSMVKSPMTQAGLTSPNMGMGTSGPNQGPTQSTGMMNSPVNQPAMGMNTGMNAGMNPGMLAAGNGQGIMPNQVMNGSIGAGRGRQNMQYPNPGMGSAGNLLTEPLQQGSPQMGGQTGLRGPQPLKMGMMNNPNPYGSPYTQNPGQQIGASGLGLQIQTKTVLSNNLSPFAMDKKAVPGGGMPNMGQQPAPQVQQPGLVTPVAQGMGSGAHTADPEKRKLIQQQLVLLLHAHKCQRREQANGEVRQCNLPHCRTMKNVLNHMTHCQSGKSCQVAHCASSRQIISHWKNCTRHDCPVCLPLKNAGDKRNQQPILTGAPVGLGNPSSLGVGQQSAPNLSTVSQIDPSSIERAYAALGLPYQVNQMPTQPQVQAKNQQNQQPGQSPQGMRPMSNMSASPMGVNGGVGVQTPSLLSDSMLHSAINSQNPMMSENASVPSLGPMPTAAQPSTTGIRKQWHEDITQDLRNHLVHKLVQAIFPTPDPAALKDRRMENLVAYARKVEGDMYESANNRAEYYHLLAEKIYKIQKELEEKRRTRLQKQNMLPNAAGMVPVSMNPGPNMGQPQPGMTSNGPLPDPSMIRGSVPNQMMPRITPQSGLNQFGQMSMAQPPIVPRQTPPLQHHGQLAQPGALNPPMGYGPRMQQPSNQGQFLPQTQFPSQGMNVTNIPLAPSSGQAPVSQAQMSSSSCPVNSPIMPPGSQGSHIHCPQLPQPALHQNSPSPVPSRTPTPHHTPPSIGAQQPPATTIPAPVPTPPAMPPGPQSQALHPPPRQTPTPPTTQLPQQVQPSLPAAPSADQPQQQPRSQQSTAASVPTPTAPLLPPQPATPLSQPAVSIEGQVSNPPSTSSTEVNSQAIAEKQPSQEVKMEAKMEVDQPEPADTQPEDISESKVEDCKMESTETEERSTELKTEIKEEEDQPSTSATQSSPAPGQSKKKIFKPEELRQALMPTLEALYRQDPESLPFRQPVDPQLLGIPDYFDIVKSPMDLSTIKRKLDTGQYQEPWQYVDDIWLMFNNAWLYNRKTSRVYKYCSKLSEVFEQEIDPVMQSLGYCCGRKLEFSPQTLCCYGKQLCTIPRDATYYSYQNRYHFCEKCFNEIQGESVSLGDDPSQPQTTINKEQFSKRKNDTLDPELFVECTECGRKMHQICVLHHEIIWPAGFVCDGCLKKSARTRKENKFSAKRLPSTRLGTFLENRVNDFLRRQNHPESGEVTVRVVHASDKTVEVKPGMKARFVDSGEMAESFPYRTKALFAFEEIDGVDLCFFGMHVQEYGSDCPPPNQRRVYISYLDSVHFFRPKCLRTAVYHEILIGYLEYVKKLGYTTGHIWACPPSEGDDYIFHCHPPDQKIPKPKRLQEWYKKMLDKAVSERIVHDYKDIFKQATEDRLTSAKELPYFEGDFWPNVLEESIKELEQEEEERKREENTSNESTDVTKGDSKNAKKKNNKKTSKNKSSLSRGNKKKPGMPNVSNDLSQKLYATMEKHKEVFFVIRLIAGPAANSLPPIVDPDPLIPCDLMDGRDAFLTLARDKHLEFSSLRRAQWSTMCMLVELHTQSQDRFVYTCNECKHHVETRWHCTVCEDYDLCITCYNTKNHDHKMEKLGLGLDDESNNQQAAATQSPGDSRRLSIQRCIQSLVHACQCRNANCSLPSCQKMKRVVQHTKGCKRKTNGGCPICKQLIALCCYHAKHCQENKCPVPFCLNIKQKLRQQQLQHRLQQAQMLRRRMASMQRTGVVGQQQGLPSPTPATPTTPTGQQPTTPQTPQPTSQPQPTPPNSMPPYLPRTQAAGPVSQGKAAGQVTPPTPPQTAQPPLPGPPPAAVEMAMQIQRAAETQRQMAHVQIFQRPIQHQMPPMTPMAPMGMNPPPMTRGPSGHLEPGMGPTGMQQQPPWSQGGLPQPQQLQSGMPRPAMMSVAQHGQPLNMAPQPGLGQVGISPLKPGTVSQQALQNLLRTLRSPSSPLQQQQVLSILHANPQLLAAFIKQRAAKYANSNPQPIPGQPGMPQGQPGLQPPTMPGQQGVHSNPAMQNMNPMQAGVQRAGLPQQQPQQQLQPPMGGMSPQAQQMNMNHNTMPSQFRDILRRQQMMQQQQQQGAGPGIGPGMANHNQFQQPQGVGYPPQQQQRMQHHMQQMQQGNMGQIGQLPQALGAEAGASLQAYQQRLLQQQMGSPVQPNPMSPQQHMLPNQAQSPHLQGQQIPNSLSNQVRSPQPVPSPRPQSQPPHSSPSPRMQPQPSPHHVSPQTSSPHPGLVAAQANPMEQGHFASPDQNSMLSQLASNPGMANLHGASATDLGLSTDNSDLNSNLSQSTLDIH
Method: The aim of the in vitro acetylation assay is to measure the enzymatic activity of the various compounds towards p300.
First, the drug is prepared:
Second, dilute p300 in AM1 buffer to a concentration of 40 ng/μL (final concentration in the reaction 20 ng/μL). This is accomplished by diluting 1 μL of p300 (at 0.4 μg/μL) into […] of AM1 buffer.
Third, prepare the Master Mix. Prepare the Master Mix in low protein binding tubes (ThermoFisher Cat. No. 90410), 20 μL system.
Incubate reactions at 30° C. for 30 minutes.
Incubate reactions at 30° C. for 1 hour.
Fourth, perform the western blot assay. • Add 6.7 μL of Laemmli Sample Buffer 4× (Bio-Rad Laboratories Cat. No. 161-0737) for each reaction and boil samples at 95° C. for 5 min. • Charge 10 μL for each sample in 2 Tris Glycine 4-15% gels (Bio-Rad Laboratories Cat. No. 456-1086). Running Buffer: Tris-Glycine 1× (pour in the cell up to the writing “2 gels”). • Run at 90 V for 1 hour (until the gel front reaches the green line of cell). • Semi-dry transfer with Trans-Blot® Turbo™ Blotting System from Bio-Rad Laboratories (Trans-Blot® Turbo™ RTA midi PVDF transfer kit Cat. No1704275). • Activate PVDF membrane in methanol for 5 minutes and then wet in Trans-Blot® Turbo™ transfer buffer. • Wet stacks in transfer buffer. • Transfer at 23 V 1.3 A for 7 minutes. • Blocking buffer: 5% Non-Fat milk in TBST (tween 0.1%) 1 hour at room temperature. • Cut the membranes to get Ac-His 3 at 17 kDa and p300 at 300 kDa. • Incubate with primary antibodies overnight at 4° C. • The day after, make 3 washes in TBST (Tween 0.1%) of 10 minutes. • Incubate with secondary antibody at room temperature for 1 hour. • Make 3 washes in TBST (Tween 0.1%) of 5 minutes. • Incubate membranes with ECL (SuperSignal West Dura Extended Duration Substrate from ThermoFisher) for 5 minutes at room temperature. • Acquire the image with ChemiDoc Odyssey Fc 2 minutes.
To detect total H3 (loading control), strip the membranes with Restore™ Western Blot Stripping Buffer according to the manufacturer protocol.
Various compounds were tested for enzymatic activity with respect to Lys 18 and Lys 27. EC50 is indicated for Activators and IC50 for inhibitors respectively.
FIGS. 1A to 25B are graphs showing the lysine residue acetylation as a function of concentration for the compounds set forth in Table 3. The shaded area corresponds to the average values of lysine residue acetylation (continuous line) and their standard error range measured in the absence of compound and DMSO. The number of replicates is represented by “n”.

## COc1cccc(OC)c1C(=O)Nc1ccc(Cl)c(C(F)(F)F)c1 [RA010115]
[1]; no oTau or oAβ
  LTP in slices treated with compound alone: no impairment
[1]; slices perfused with compound and either oTau (50 nM) or oAβ (200 nM)
  oTau- and oAβ-induced LTP deficits: restored; also recorded: rescues
mice; 24 hrs after the electric shock
  oTau- and oAβ-induced defects in contextual fear memory (freezing): rescues
mice; mice treated with only compound
  Contextual fear memory performance, compound alone: not impaired
p300; EC50 for activators
  H3-Lys 27 EC50: NO ACTIVITY
p300; EC50 for activators, read-out: H3-Lys 18 EC50
  EC50: 137 nM
p300; IC50 for inhibitors
  H3-Lys 27 IC50: NO ACTIVITY
